Test results: patent US20040241653A1, “Methods for identifying marker genes for cancer” (priority 2001, published 2004)

What was measured:
[1] = tested on: PSA promoter; assay: PSA promoter/enhancer CAT reporter assay in transfected LNCaP cells; assay type: cell-based, human; conditions: LNCaP cells co-transfected with PSA-CAT reporter and wild type p53 plasmid; TSA 100 nM
Procedure: (§1) FIG. 2: Opposite regulatory effect of p53 on PSA and p21 promoters. Chloramphenicol acetyltransferase (CAT)-reporter constructs were used to estimate p53 influence on PSA and p21 promoter elements. […]
(§2) FIG. 3: Trichostatin A (TSA) treatment eliminates the effect p53 has on PSA promoter activity. […] TSA (100 nM) was added 5 h and CAT activity was measured 40 h post-transfection. […]
(§3) Since it has previously been shown that negative regulation of transcription by p53 may involve p53-mediated recruitment of histone deacetylases (HDAC) (Murphy et al., Genes Dev., i3:2490-2501 1999), the inventors set out to determine whether this would be also true for the PSA promoter. […] At the same time, TSA had no effect on p53-mediated transactivation as determined in a similar experiment employing the p21 promoter-driven CAT reporter construct (FIG. 3). […]

[2] = tested on: p21 promoter; assay: p21/Waf1 p53-responsive promoter CAT reporter assay in transfected LNCaP cells; assay type: cell-based, human; conditions: LNCaP cells co-transfected with p21-CAT reporter and wild type p53 plasmid; TSA 100 nM
Procedure: as §1, §2, §3

In the case of `CC(/C=C/C(=O)NO)=C\[C@@H](C)C(=O)c1ccc(N(C)C)cc1` [TSA, Trichostatin A], the “p53-mediated repression of PSA promoter driven transcriptional activity (CAT activity)” value [1] is reported as “completely abrogated” and the “p53-mediated transactivation of p21 promoter-driven CAT reporter” value [2] is reported as “no effect”.
